Patent US8658798B2, “Herbicide triazolylpyridine ketones” (Bayer Cropscience AG, priority 2007, dated 2014)

What was measured:
Format in all cases: in vivo
wheat = assay: Selective herbicide effect test to field crop (foliage spray treatment after germination), Test example 4, phytotoxicity; conditions: 14 days after spraying, 100% = complete death, 0% = no phytotoxicity
Protocol: (§1) • Preparing preparation of active compound • Carrier: DMF 5 parts by weight • Emulsifier: benzyloxy polyglycol ether 1 part by weight
(§2) A preparation of active compound is obtained as an emulsion by mixing 1 part by weight of active compound with the above amounts of carrier and emulsifier. A prescribed amount of preparation is diluted with water.
(§3) In a greenhouse, seeds of field crops [wheat (Triticum), corn (Zea), soy bean (Glycine)] and weeds [barnyardgrass (Echinochloa), southern crabgrass (Digitaria), livid amaranth (Amaranthus), fat hen (Chenopodium)] were sown on the surface layer of 16 cm^2 pots filled with field soil (sandy loam), and covered with soil. After 1 day, the prescribed diluted solutions of preparations of respective active compounds, which were prepared according to Test example 1, were sprayed to the soil. After 2 weeks from the treatment, phytotoxicity to crops and herbicide effect of respective compounds were examined. In the evaluation of herbicide effect and phytotoxicity, complete death was evaluated as 100%, and the case of no herbicide effect or no phytotoxicity was evaluated as 0%. When the herbicide effect is 80% or more, such active compounds are evaluated to have practical utility as a herbicide. When phytotoxicity is 20% or less, such active compounds are evaluated to have excellent safety as a herbicide.
(§4) In a greenhouse, respective seeds of weeds (barnyardgrass, southern crabgrass, fat hen, and livid amaranth) and crops (wheat, corn, and soy bean) were sown on the surface layer of pots filled with field soil, and covered with soil. After one day and 10 days (average 2nd leaf stage for weeds) from the sowing and covering the seeds with soil, the prescribed diluted solutions of preparations of respective active compounds, which were prepared according to Test example 1, were uniformly sprayed onto the soil surfaces of respective test pots and the foliage parts of the plant bodies.
(§5) After 14 days from the spraying, the degree of herbicide effect was examined. Evaluation of herbicide effect and phytotoxicity were carried out similarly to Test example 3.

corn = assay: as above; conditions: 14 days after spraying, 100% = complete death, 0% = no phytotoxicity
Protocol: as §1, §2, §3, §4, §5

soy bean = assay: as above; conditions: 14 days after spraying, 100% = complete death, 0% = no phytotoxicity
Protocol: as §1, §2, §3, §4, §5

southern crabgrass = assay: Selective herbicide effect test to field crop (foliage spray treatment after germination), Test example 4, herbicide effect; conditions: 14 days after spraying, 100% = complete death, 0% = no effect
Protocol: as §1, §2, §3, §4, §5

fat hen = assay: as above; conditions: 14 days after spraying, 100% = complete death, 0% = no effect
Protocol: as §1, §2, §3, §4, §5

livid amaranth = assay: as above; conditions: 14 days after spraying, 100% = complete death, 0% = no effect
Protocol: as §1, §2, §3, §4, §5

barnyardgrass = assay: as above; conditions: 14 days after spraying, 100% = complete death, 0% = no effect
Protocol: as §1, §2, §3, §4, §5

[1] = test system: green bristle grass (Setaria); assay: Herbicide effect test against field weed (soil spray treatment before germination), Test example 1; conditions: dosage 500 g ai/ha, 2 weeks after treatment, 100% = complete death, 0% = no effect
Protocol: as §1, §2
(§6) In a greenhouse, seeds of field weeds [livid amaranth (Amaranthus), green bristle grass (Setaria)] were sown on the surface layer of 16 cm^2 pots filled with field soil (sandy loam) , and covered with soil. Here, one kind of grass was sown for one pot. Immediately after sowing, the prescribed diluted solutions which were prepared according to the above preparation method of the preparation of respective active compounds were sprayed to soil. After 2 weeks from the treatment, the herbicide effect of each of the compounds was examined. In the evaluation of herbicide effect, complete death was evaluated as 100%, and the case of no herbicide effect was evaluated as 0%. When the herbicide effect is 80% or more, such active compounds are evaluated to have practical utility as a herbicide.

[2] = test system: livid amaranth (Amaranthus); assay: as above; conditions: dosage 500 g ai/ha, 2 weeks after treatment, 100% = complete death, 0% = no effect
Protocol: as §1, §2, §6

[3] = test system: southern crabgrass (Digitaria); assay: Selective herbicide effect test to field crop (soil spray treatment before germination), Test example 3, herbicide effect; conditions: 2 weeks after treatment, 100% = complete death
Protocol: as §1, §2, §3

[4] = test system: barnyardgrass (Echinochloa); assay: as above; conditions: 2 weeks after treatment, 100% = complete death
Protocol: as §1, §2, §3

[5] = test system: livid amaranth (Amaranthus); assay: as above; conditions: 2 weeks after treatment, 100% = complete death
Protocol: as §1, §2, §3

fat hen (Chenopodium) = assay: as above; conditions: 2 weeks after treatment, 100% = complete death
Protocol: as §1, §2, §3

wheat (Triticum) = assay: Selective herbicide effect test to field crop (soil spray treatment before germination), Test example 3, phytotoxicity; conditions: 2 weeks after treatment, 100% = complete death, 0% = no phytotoxicity
Protocol: as §1, §2, §3

soy bean (Glycine) = assay: as above; conditions: 2 weeks after treatment, 100% = complete death, 0% = no phytotoxicity
Protocol: as §1, §2, §3

corn (Zea) = assay: as above; conditions: 2 weeks after treatment, 100% = complete death, 0% = no phytotoxicity
Protocol: as §1, §2, §3

Green bristle grass = assay: Herbicide effect test against field weed (foliage spray treatment after germination), Test example 2; conditions: foliage spray treatment after germination (2nd-3rd leaf stage); dosage 500 g ai/ha; 2 weeks after treatment; 100% = complete death
Protocol: as §1, §2, §6
In a greenhouse, to 16 cm^2 pots filled with field soil (sandy loam), seedling plants (2nd-3rd leaf stage) of a field weed (Green bristle grass) were transplanted. After 1 day, the prescribed diluted solutions of preparations of respective active compounds, which were prepared according to the above Test example 1, were sprayed from the upside of the plant body. After 2 weeks from the treatment, the herbicide effect of each of the compounds was examined. Evaluation of herbicidal effect was carried out similarly to Test example 1.

With Cc1nc(-n2cncn2)ccc1C(=O)c1c(C)nn(C)c1O [2-229] the “phytotoxicity, Wheat” value (wheat; 320 g/ha) was 10%, the “phytotoxicity, Corn” value (corn; 320 g/ha) was 50% and the “phytotoxicity, Soy bean” value (soy bean; 320 g/ha) was 60%. The “herbicide effect, Southern crabgrass” value (southern crabgrass; 320 g/ha) was 100%, the “herbicide effect, Fat hen” value (fat hen; 320 g/ha) was 90% and the “Herbicide effect, Livid amaranth” value (livid amaranth; 320 g/ha) was 100%. The “herbicide effect, Barnyardgrass” value (barnyardgrass; 320 g/ha) was 100%, the “Herbicide effect, Green bristle grass” value [1] was 100% and the “Herbicide effect, Livid amaranth” value [2] was 100%.
Cc1nc(-n2cncn2)ccc1C(=O)C1C(=O)CCCC1=O [1-1, 2-{[2-methyl-6-(1H-1,2,4-triazol-1-yl)pyridin-3-yl]carbonyl}cyclohexan-1,3-dione] was tested, and the “herbicide effect, Southern crabgrass” value ([3]; dosage 320 g/ha) was 100%, the “herbicide effect, Barnyardgrass” value ([4]; dosage 320 g/ha) was 100% and the “Herbicide effect, Livid amaranth” value ([5]; dosage 320 g/ha) was 80%. For the same compound, the “herbicide effect, Fat hen” value (fat hen (Chenopodium); dosage 320 g/ha) was 100%, the “Herbicide effect, Green bristle grass” value [1] was 100% and the “Herbicide effect, Livid amaranth” value [2] was 100%.
With Cc1nc(-n2cncn2)ccc1C(=O)C1=C(O)C(C)(C)C(=O)C(C)(C)C1=O [1-685] the “herbicide effect, Southern crabgrass” value ([3]; dosage 80 g/ha) was 100%, the “herbicide effect, Barnyardgrass” value ([4]; dosage 80 g/ha) was 100% and the “Herbicide effect, Livid amaranth” value ([5]; dosage 80 g/ha) was 90%. For the same compound, the “herbicide effect, Fat hen” value (fat hen (Chenopodium); dosage 80 g/ha) was 90%, the “phytotoxicity, Wheat” value (wheat (Triticum); dosage 80 g/ha) was 40% and the “phytotoxicity, Soy bean” value (soy bean (Glycine); dosage 80 g/ha) was 10%. The “phytotoxicity, Corn” value (corn (Zea); dosage 80 g/ha) was 30%.
For COCCOCc1nc(-n2cncn2)ccc1C(=O)C1=C(O)CCCC1=O [1-66], the “phytotoxicity, Wheat” value (wheat; 320 g/ha) was 10%, the “phytotoxicity, Corn” value (corn; 320 g/ha) was 50% and the “phytotoxicity, Soy bean” value (soy bean; 320 g/ha) was 50%. The “herbicide effect, Southern crabgrass” value (southern crabgrass; 320 g/ha) was 100%, the “herbicide effect, Fat hen” value (fat hen; 320 g/ha) was 100% and the “Herbicide effect, Livid amaranth” value (livid amaranth; 320 g/ha) was 100%. For the same compound, the “herbicide effect, Barnyardgrass” value (barnyardgrass; 320 g/ha) was 100% and the “Herbicide effect, Green bristle grass” value (Green bristle grass) was 90%.
In the case of CSCc1nc(-n2cncn2)ccc1C(=O)C1=C(O)CCCC1=O [1-36], the “phytotoxicity, Wheat” value (wheat; 320 g/ha) is reported as 0%, the “phytotoxicity, Corn” value (corn; 320 g/ha) is reported as 10% and the “phytotoxicity, Soy bean” value (soy bean; 320 g/ha) is reported as 50%. The “herbicide effect, Southern crabgrass” value (southern crabgrass; 320 g/ha) was 100%, the “herbicide effect, Fat hen” value (fat hen; 320 g/ha) was 90% and the “Herbicide effect, Livid amaranth” value (livid amaranth; 320 g/ha) was 80%. For the same compound, the “herbicide effect, Barnyardgrass” value (barnyardgrass; 320 g/ha) was 100% and the “Herbicide effect, Green bristle grass” value (Green bristle grass) was 100%.
With Cc1nc(-n2cncn2)ccc1C(=O)C1=C(O)CCC(C)C1=O (stereo not shown) [1-115] the “herbicide effect, Southern crabgrass” value ([3]; dosage 320 g/ha) was 100%, the “herbicide effect, Barnyardgrass” value ([4]; dosage 320 g/ha) was 100% and the “Herbicide effect, Livid amaranth” value ([5]; dosage 320 g/ha) was 90%. The “herbicide effect, Fat hen” value (fat hen (Chenopodium); dosage 320 g/ha) was 100%, the “Herbicide effect, Green bristle grass” value (Green bristle grass) was 100% and the “phytotoxicity, Wheat” value (wheat (Triticum); dosage 320 g/ha) was 0%. For the same compound, the “phytotoxicity, Soy bean” value (soy bean (Glycine); dosage 320 g/ha) was 10% and the “phytotoxicity, Corn” value (corn (Zea); dosage 320 g/ha) was 0%.
With O=C1CCCC(O)=C1C(=O)c1ccc(-n2cncn2)nc1COCC(F)(F)F [1-28] the “herbicide effect, Southern crabgrass” value ([3]; dosage 320 g/ha) was 100%, the “herbicide effect, Barnyardgrass” value ([4]; dosage 320 g/ha) was 100% and the “Herbicide effect, Livid amaranth” value ([5]; dosage 320 g/ha) was 90%. The “herbicide effect, Fat hen” value (fat hen (Chenopodium); dosage 320 g/ha) was 100%, the “phytotoxicity, Wheat” value (wheat (Triticum); dosage 320 g/ha) was 0% and the “phytotoxicity, Soy bean” value (soy bean (Glycine); dosage 320 g/ha) was 10%. The “phytotoxicity, Corn” value (corn (Zea); dosage 320 g/ha) was 5%.
Cc1nc(-n2cncn2)ccc1C(=O)c1cnn(C)c1O [2-1] was tested, and the “phytotoxicity, Wheat” value (wheat; 80 g/ha) was 0%, the “phytotoxicity, Corn” value (corn; 80 g/ha) was 5% and the “phytotoxicity, Soy bean” value (soy bean; 80 g/ha) was 50%. For the same compound, the “herbicide effect, Southern crabgrass” value (southern crabgrass; 80 g/ha) was 95%, the “herbicide effect, Fat hen” value (fat hen; 80 g/ha) was 90% and the “Herbicide effect, Livid amaranth” value (livid amaranth; 80 g/ha) was 100%. The “herbicide effect, Barnyardgrass” value (barnyardgrass; 80 g/ha) was 100%, the “Herbicide effect, Green bristle grass” value [1] was 100% and the “Herbicide effect, Livid amaranth” value [2] was 100%.
In the case of Cc1nc(-n2cncn2)ccc1C(=O)C1=C(O)CCC(C)(C)C1=O [1-457], the “phytotoxicity, Wheat” value (wheat; 320 g/ha) is reported as 20%, the “phytotoxicity, Corn” value (corn; 320 g/ha) is reported as 50% and the “phytotoxicity, Soy bean” value (soy bean; 320 g/ha) is reported as 40%. For the same compound, the “herbicide effect, Southern crabgrass” value (southern crabgrass; 320 g/ha) was 100%, the “herbicide effect, Fat hen” value (fat hen; 320 g/ha) was 100% and the “Herbicide effect, Livid amaranth” value (livid amaranth; 320 g/ha) was 100%. For the same compound, the “herbicide effect, Barnyardgrass” value (barnyardgrass; 320 g/ha) was 100% and the “Herbicide effect, Green bristle grass” value (Green bristle grass) was 100%.
For Cc1nc(-n2cncn2)ccc1C(=O)c1cnoc1C1CC1 [3-115], the “herbicide effect, Southern crabgrass” value ([3]; dosage 320 g/ha) was 100%, the “herbicide effect, Barnyardgrass” value ([4]; dosage 320 g/ha) was 100% and the “Herbicide effect, Livid amaranth” value ([5]; dosage 320 g/ha) was 90%. For the same compound, the “herbicide effect, Fat hen” value (fat hen (Chenopodium); dosage 320 g/ha) was 100%, the “Herbicide effect, Green bristle grass” value (Green bristle grass) was 100% and the “phytotoxicity, Wheat” value (wheat (Triticum); dosage 320 g/ha) was 5%. For the same compound, the “phytotoxicity, Soy bean” value (soy bean (Glycine); dosage 320 g/ha) was 20% and the “phytotoxicity, Corn” value (corn (Zea); dosage 320 g/ha) was 10%.
For CS(=O)(=O)Cc1nc(-n2cncn2)ccc1C(=O)C1=C(O)CCCC1=O [1-56], the “phytotoxicity, Wheat” value (wheat; 320 g/ha) was 0%, the “phytotoxicity, Corn” value (corn; 320 g/ha) was 50% and the “phytotoxicity, Soy bean” value (soy bean; 320 g/ha) was 50%. The “herbicide effect, Southern crabgrass” value (southern crabgrass; 320 g/ha) was 100%, the “herbicide effect, Fat hen” value (fat hen; 320 g/ha) was 90% and the “Herbicide effect, Livid amaranth” value (livid amaranth; 320 g/ha) was 80%. For the same compound, the “herbicide effect, Barnyardgrass” value (barnyardgrass; 320 g/ha) was 100%.
